According to patent US11492671B2, “MiRNAs for treatment and in vitro diagnosis of drug resistant tumors” (ISTITUTI FISIOTERAPICI OSPITALIERI, priority 2018, dated 2022):

Experiments:
[1] = system: sensitive M14 and WM266 melanoma cells; assay: Cell viability / proliferation after transient transfection of miRNAs, with or without a BRAFi; format: cell-based, human; conditions: enforced expression by transient transfection, FIG. 12; for effect of BRAFi on cell viability: in the presence of a BRAFi
Protocol: (§1) Viability of cells was examined with 3-(4,5-dimethylthiazol-2-yl)-2,5-diphenyltetrazolium bromide Cell Titer 96 AQueous One Solution Cell Proliferation Assay (Promega), according to the manufacturer's protocol. The plates were analyzed in a Multilabel Counter (Bio-Rad Laboratories). Cell viability was also determined by crystal violet staining. Briefly, the cells were stained for 20 min at room temperature with staining solution (0.5% crystal violet in 30% methanol), washed four times with water and then dried. Cells were then dissolved in a Methanol/SDS solution and the adsorbance (595 nm) was read using a microplate ELISA reader.
(§2) Next, the biological consequences of overexpressing or inhibiting the expression of the four selected miRNAs above miR-4443, miR-4488, miR-204-5p and miR-199b-5p were assessed by transient transfections in sensitive M14 and WM266 melanoma cells in the presence or not of a BRAFi in order to evaluate melanoma cell proliferation and apoptosis induction.

[2] = system: sensitive M14 and WM266 melanoma cells; assay: Apoptosis induction measured by Caspase 3/7 activation after transient transfection, with or without a BRAFi; format: cell-based, human; conditions: enforced expression by transient transfection, FIG. 13; for BRAFi induction of apoptosis, measured by Caspase 3/7 activation: in the presence of a BRAFi
Protocol: as §2

M14^S melanoma cells = assay: Development of BRAFi-resistant colonies under chronic BRAFi exposure; format: cell-based, human; conditions: miRNA overexpressed, cells exposed chronically to a BRAFi (1 μM vemurafenib) for 28 days; FIG. 16
Protocol: FIG. 16 M14^S melanoma cells were transfected with the indicated miRNAs for 72 h and then stained with Crystal violet (day 0). The remaining plates were treated with 1 μM vemurafenib every 48 h and then stained after 7, 14, 21 and 28 days. Data are mean±s.d. from three independent experiments. P<0.05. The pictures shown are representative of three independent experiments.
Hereafter, the effects of the DOWNMIRNAs on the development of drug resistance in vitro were determined. […] In contrast, growth of control cells transfected with scrambled-miRNA was initially impaired by the presence of a BRAF inhibitor (from 7 to 21 days of drug exposure), but gave rise to resistant colonies at later times (day 28) (FIG. 16).

[3] = system: VEGFA in WM266^R melanoma cells; assay: Western blot analysis of VEGFA protein levels after miRNA transfection; format: cell-based, human; conditions: miRNA overexpressed in WM266^R cells vs Scrambled miRNA; FIG. 26
Description: FIG. 26 WM266^R melanoma cells transfected with Scrambled miRNA or miR-199b-5p were harvested and subjected to Western blot analysis to detect VEGFA and GAPDH protein levels.
Antibodies against VEGFA and GAPDH were obtained from Santa Cruz Biotechnology. Vemurafenib and trametinib were obtained from Selleck Chemicals. TaqMan probes for GAPDH, VEGF, BCL2, miR-4443, miR-4488, miR-204-5p, miR-199b-5p, miR-630, miR-1234, is-3676 (previously named miR-3676-3p), miR-145-5p and RNU48 were purchased from Applied Biosystems. Melanoma cells were lysed with RIPA buffer; 50 μg of total protein were resolved under reducing conditions by 8% SDS-PAGE and transferred to reinforced nitrocellulose (BA-S 83, Schleider and Schuell, Keene, N.H., USA). The membranes were blocked with 5% non fat dry milk in PBS 0.1% Tween 20, and incubated with the different primary antibodies. The membranes were rehydrated and probed with anti-GAPDH, to estimate the protein equal loading. Densitometric analysis was performed using Quantity One Program (Bio-Rad Laboratories GmbH) and results were expressed as mean values from three independent experiments.
VEGF increased expression and release members of miR-199 family were considered (25). […] Therefore, miR-199b-5p was overexpressed in WM266^R cells.

A375^DR melanoma cells = assay: Colony formation / growth of cells double resistant to BRAF and MEK inhibitors; format: cell-based, human; conditions: miRNAs targeted individually; FIG. 18 left
Description: Data are mean±s.d. from three independent experiments. P<0.05.
Human melanoma cell lines M14 (ATCC® HTB-129™) and A375 (ATCC® CRL-1619™) (both V600E) were from American Type Culture Collection (ATCC®). LOX IMVI (V600E) melanoma cell line (EZT-LOXI-1) was from EZ Byosistems™. WM266 melanoma cell line (V600D)(WM266-4-01-0001) was from ROCKLAND™ antibodies & assays. Resistant melanoma cells were selected by treating them for about two months with increasing drug concentrations every two weeks (from 50 nM to 2 μM). A375^DR cells were selected in the presence of both BRAF and MEK inhibitors, as previously done for M14^R, WM266^R, LOX IMVI^R and A375^R. All human melanoma cell lines used in the present work were cultured in RPMI supplemented with 10% (vol/vol) FBS. Human umbilical vein endothelial cells (HUVEC)s, were employed between the third and the seventh passage, were grown in Eagle Basal Medium (EBM) supplemented with 4% FBS, 0.1% gentamicin, 1 μg/mL hydrocortisone, […] and 12 μg/mL bovine brain extract (Cambrex, Bio Science).
Next, the growth inhibitory effect of simultaneously targeting miRNAs combinations was determined. In detail, for these experiments antagomiRs recognising the UPMIRNAs (amiR-4443: aaaacccacgcctccaa (SEQ ID NO: 10) and amiR-4488: cgccggagcccgccccct (SEQ ID NO: 11)) in different combinations with DOWNMIRNAs mimics (miR-204-5p: […] (SEQ ID NO: 2) and miR-199b-5p […] (SEQ ID NO: 1)) were transiently transfected in melanoma cell lines. […] In addition, the effect of targeting miRNAs individually or in combinations was assessed in a cell line rendered double resistant to both BRAF and MEK inhibitors (called A375^DR). Other investigators have previously reported that double drug resistant melanoma cell lines are more difficult to growth inhibit (5). In fact no growth inhibition was observed effect on A375^DR when the four selected miRNAs were targeted individually (FIG. 18, left panel). […]

[4] = system: drug sensitive and resistant M14 cells; assay: In vitro short term colony formation assay; format: cell-based, human; conditions: overexpression in BRAFi drug resistant cells (M14^R); FIG. 15
Protocol: as §1, with “reader. […]” for “reader.”

[5] = system: human umbilical vein endothelial cells (HUVEC); assay: Endothelial tube formation assay on matrigel; format: cell-based
Protocol: Growth factor reduced Matrigel (10 μL/well) was allowed to polymerize for 1 h on angiogenesis 96 well μ-plates (ibidi, GmbH) at 37° C., 5% CO2. HUVEC (5×10^3 cells/well) suspended in 50 μL of pre-warmed Eagle Basal Medium (CTRL), 10% FBS, or conditioned media from WM266^S, or WM266^R cells, were seeded on matrigel and allowed to form tubes at 37° C. in humidified air with 5% CO2 for 6 h. In order to quantify tube formation, images were acquired and the number of tubes formed by cord-like structures exceeding 100 μm in length were visualized using Axiovision 4.8 software (Carl Zeiss) and counted.
This finding was of particular interest in the light of the known involvement of VEGF in melanoma progression and resistance to therapy (23). […] Of note, for our results only tube-like structures exceeding 100 μm in length were considered. […] As control, 10% FBS employed as a source of angiogenic growth factors, elicited a considerable response rising to 204% over basal (FIG. 24). […] In order to find a correlation between miRNAs deregulation and […]

| Substance | effect of BRAFi on cell viability [1] | BRAFi induction of apoptosis, measured by Caspase 3/7 activation [2] | A375^DR colony formation / growth inhibition (A375^DR melanoma cells) | further results |
| --- | --- | --- | --- | --- |
| miR-4488: UPMIRNA, agggggcgggcuccggcg (SEQ ID NO: 11), enforced expression by transient transfection (AGGGGGCGGGCUCCGGCG; listed as RNA, chemistry not given here; listed as Homo sapiens) | decreases the effect of BRAFi | decreases the effect of BRAFi | – | – |
| miR-199b-5p: miRNA mimic: cccaguguuuagacuaucuguuc (SEQ ID NO:1) (CCCAGUGUUUAGACUAUCUGUUC; listed as RNA, chemistry not given here; listed as Homo sapiens) | potentiates BRAFi activity | potentiates BRAFi activity | not able to affect | ability to form BRAFi-resistant colonies (M14^S melanoma cells): completely lost the ability to form BRAFi-resistant colonies; cell proliferation [1]: inhibits cell proliferation; VEGF expression (Western Blot) [3]: able to reduce specifically VEGF expression; apoptosis (Caspase 3/7 activation) [2]: induces apoptosis; colony formation [4]: strongly impaired colony formation; tube formation induced by CM from transfected WM266^R cells ([5]; conditioned medium of WM266^R cells transfected with the miRNA, FIG. 27): lost the capability to induce tube formation |
| Avastin: used to inhibit VEGFR activity; called VEGFR inhibitor [reference compound] | – | – | – | tube formation induced by CM from WM266^R melanoma cells ([5]; addition of VEGFR inhibitor, FIG. 25): significantly inhibited |
| amiR-4488: antagomiR recognising miR-4488: cgccggagcccgccccct (antisense CGCCGGAGCCCGCCCCCT; listed as DNA, chemistry not given here) | – | – | not able to affect | – |
| amiR-4443: antagomiR recognising miR-4443: aaaacccacgcctccaa (antisense AAAACCCACGCCTCCAA; listed as DNA, chemistry not given here) | – | – | not able to affect | – |
| miR-4443: UPMIRNA, uuggaggcguggguuuu (SEQ ID NO: 10), enforced expression by transient transfection (UUGGAGGCGUGGGUUUU; listed as RNA, chemistry not given here; listed as Homo sapiens) | decreases the effect of BRAFi | decreases the effect of BRAFi | – | – |
